Results reported in ChEMBL document CHEMBL1201862, “PubChem BioAssay data set” (2004).
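Five concentrations, 48 hours, 96-well plates. GI50: concentration for 50% inhibition of growth.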 The source made the active and inactive calls. Cut-off read from the data, not from the text of the source: active = GI50 up to about 1.1 µM and inactive = higher.

Tests used:
Test in all cases: DTP human tumour cell line panel, 48 h
[1] = test system: 786-0
[2] = test system: A549
[3] = test system: ACHN
[4] = test system: CCRF-CEM
[5] = test system: COLO 205
[6] = test system: DLD-1
[7] = test system: DMS-273
[8] = test system: EKVX
[9] = test system: HCC 2998
[10] = test system: HCT-116
[11] = test system: HCT-15
[12] = test system: HL-60
[13] = test system: HOP-62
[14] = test system: HOP-92
[15] = test system: HT-29
[16] = test system: IGROV-1
[17] = test system: K562
[18] = test system: KM-20L2
[19] = test system: KM12
[20] = test system: LOX IMVI
[21] = test system: LXFL 529
[22] = test system: M14
[23] = test system: M19-MEL
[24] = test system: MOLT-4
[25] = test system: Malme-3M
[26] = test system: NCI-H226
[27] = test system: NCI-H23
[28] = test system: NCI-H460
[29] = test system: NCI-H522
[30] = test system: OVCAR-3
[31] = test system: OVCAR-4
[32] = test system: OVCAR-8
[33] = test system: RXF 393
[34] = test system: SF-268
[35] = test system: SF-295
[36] = test system: SF-539
[37] = test system: SK-MEL-28
[38] = test system: SK-MEL-2
[39] = test system: SK-MEL-5
[40] = test system: SK-OV-3
[41] = test system: SN12C
[42] = test system: SNB-19
[43] = test system: SNB-75
[44] = test system: SNB-78
[45] = test system: SR
[46] = test system: SW-620
[47] = test system: TK-10
[48] = test system: U-251
[49] = test system: UACC-257
[50] = test system: UACC-62
[51] = test system: UO-31
[52] = test system: A498
[53] = test system: CAKI-1
[54] = test system: DMS-114
[55] = test system: HOP-18
[56] = test system: OVCAR-5
[57] = test system: RPMI-8226

For `COc1ccc(CNC2=C(NC(C)=O)C(=O)c3ccccc3C2=O)cc1`, the GI50 [1] was 24.4 µM (inactive), the GI50 [2] was 17.3 µM (inactive) and the GI50 [3] was 2.07 µM (inactive). The GI50 [4] was 8.73 µM (inactive), the GI50 [5] was 9.44 µM (inactive) and the GI50 [6] was 8.53 µM (inactive). For the same compound, the GI50 [7] was 16.4 µM (inactive), the GI50 [8] was 14.7 µM (inactive) and the GI50 [9] was 48.4 µM (inactive). The GI50 [10] was 5.09 µM (inactive), the GI50 [11] was 13.1 µM and the GI50 [12] was 1.69 µM (inactive). For the same compound, the GI50 [13] was > 50 µM (inactive), the GI50 [14] was 6.56 µM (inactive) and the GI50 [15] was 29.4 µM (inactive). The GI50 [16] was 16.8 µM (inactive), the GI50 [17] was 7.76 µM (inactive) and the GI50 [18] was 28.8 µM (inactive). For the same compound, the GI50 [19] was 23 µM (inactive), the GI50 [20] was 8.51 µM (inactive) and the GI50 [21] was 8.07 µM (inactive). The GI50 [22] was 19.4 µM (inactive), the GI50 [23] was 9.48 µM (inactive) and the GI50 [24] was 3.71 µM (inactive). For the same compound, the GI50 [25] was 8.32 µM (inactive), the GI50 [26] was 12.6 µM (inactive) and the GI50 [27] was 6.68 µM (inactive). For the same compound, the GI50 [28] was 15.2 µM (inactive), the GI50 [29] was 1.37 µM (inactive) and the GI50 [30] was 8.07 µM (inactive). The GI50 [31] was 8.13 µM (inactive), the GI50 [32] was 16.8 µM (inactive) and the GI50 [33] was 6.41 µM (inactive). For the same compound, the GI50 [34] was 18.9 µM (inactive), the GI50 [35] was 17.8 µM (inactive) and the GI50 [36] was 7.43 µM (inactive). The GI50 [37] was 18.3 µM (inactive), the GI50 [38] was 9.18 µM (inactive) and the GI50 [39] was 7.48 µM (inactive). For the same compound, the GI50 [40] was 19.5 µM (inactive), the GI50 [41] was 16.8 µM (inactive) and the GI50 [42] was 25.5 µM (inactive). The GI50 [43] was 12.8 µM (inactive), the GI50 [44] was 11.9 µM (inactive) and the GI50 [45] was 14 µM (inactive). The GI50 [46] was 8.13 µM (inactive), the GI50 [47] was 10.6 µM (inactive) and the GI50 [48] was 12.4 µM (inactive). For the same compound, the GI50 [49] was 8.77 µM (inactive), the GI50 [50] was 7.73 µM (inactive) and the GI50 [51] was 9.53 µM (inactive).
For `CN(C)CCNC(=O)c1ccc2ccc3cccnc3c2n1`, the GI50 [1] was 11.1 µM (inactive), the GI50 [52] was 14.3 µM (inactive) and the GI50 [2] was 12.1 µM (inactive). For the same compound, the GI50 [3] was 7.45 µM (inactive), the GI50 [53] was 13.1 µM (inactive) and the GI50 [4] was 18.9 µM (inactive). For the same compound, the GI50 [5] was 8.24 µM (inactive), the GI50 [6] was 6.55 µM (inactive) and the GI50 [54] was 12.1 µM (inactive). For the same compound, the GI50 [7] was 6.89 µM (inactive), the GI50 [8] was 15.5 µM (inactive) and the GI50 [9] was 10.5 µM (inactive). The GI50 [10] was 4.02 µM (inactive), the GI50 [11] was 11.8 µM and the GI50 [12] was 26.4 µM (inactive). For the same compound, the GI50 [55] was 26.2 µM (inactive), the GI50 [13] was 19.2 µM (inactive) and the GI50 [14] was 16.4 µM (inactive). The GI50 [15] was 9.14 µM (inactive), the GI50 [16] was 25.7 µM (inactive) and the GI50 [17] was 21.5 µM (inactive). For the same compound, the GI50 [18] was 9.57 µM (inactive), the GI50 [19] was 18.2 µM (inactive) and the GI50 [20] was 9.51 µM (inactive). For the same compound, the GI50 [21] was 11.8 µM (inactive), the GI50 [22] was 16.4 µM (inactive) and the GI50 [24] was 3.44 µM (inactive). The GI50 [25] was 13.5 µM (inactive), the GI50 [26] was 14.3 µM (inactive) and the GI50 [27] was 17.1 µM (inactive). The GI50 [28] was 6.18 µM (inactive), the GI50 [29] was 7.23 µM (inactive) and the GI50 [30] was 24.7 µM (inactive). For the same compound, the GI50 [31] was 14.5 µM (inactive), the GI50 [56] was 14.6 µM (inactive) and the GI50 [32] was 8.17 µM (inactive). For the same compound, the GI50 [33] was 12.8 µM (inactive), the GI50 [34] was 16.2 µM (inactive) and the GI50 [35] was 18.7 µM (inactive). The GI50 [36] was 8.63 µM (inactive), the GI50 [37] was 27.9 µM (inactive) and the GI50 [38] was 15.2 µM (inactive). For the same compound, the GI50 [39] was 13.9 µM (inactive), the GI50 [40] was 19.5 µM (inactive) and the GI50 [41] was 13.8 µM (inactive). For the same compound, the GI50 [42] was 19.6 µM (inactive), the GI50 [43] was 16 µM (inactive) and the GI50 [44] was 7.78 µM (inactive). The GI50 [45] was 4.24 µM (inactive), the GI50 [46] was 5.98 µM (inactive) and the GI50 [47] was 9.35 µM (inactive). For the same compound, the GI50 [48] was 16.3 µM (inactive), the GI50 [49] was 15.3 µM (inactive) and the GI50 [50] was 16.6 µM (inactive). The GI50 [51] was 12.2 µM (inactive).
With `O=C(CSc1nnc(Cc2ccccc2)o1)Nc1ccc(Cl)cc1` the GI50 [1] was > 100 µM (inactive), the GI50 [52] was 46.8 µM (inactive) and the GI50 [2] was > 100 µM (inactive). For the same compound, the GI50 [3] was 75.9 µM (inactive), the GI50 [53] was 59.2 µM (inactive) and the GI50 [4] was > 100 µM (inactive). The GI50 [5] was > 100 µM (inactive), the GI50 [6] was > 100 µM (inactive) and the GI50 [54] was 39.4 µM (inactive). For the same compound, the GI50 [7] was 67.8 µM (inactive), the GI50 [8] was 32.7 µM (inactive) and the GI50 [9] was > 100 µM (inactive). The GI50 [10] was > 100 µM (inactive), the GI50 [11] was greater than 100 µM and the GI50 [12] was > 100 µM (inactive). The GI50 [55] was > 100 µM (inactive), the GI50 [13] was > 100 µM (inactive) and the GI50 [15] was 47.4 µM (inactive). For the same compound, the GI50 [16] was 92 µM (inactive), the GI50 [17] was 87.7 µM (inactive) and the GI50 [18] was 78.5 µM (inactive). For the same compound, the GI50 [19] was > 100 µM (inactive), the GI50 [20] was > 100 µM (inactive) and the GI50 [21] was 86.3 µM (inactive). For the same compound, the GI50 [22] was > 100 µM (inactive), the GI50 [23] was > 100 µM (inactive) and the GI50 [24] was > 100 µM (inactive). For the same compound, the GI50 [25] was > 100 µM (inactive), the GI50 [26] was 86.5 µM (inactive) and the GI50 [27] was 52.2 µM (inactive). For the same compound, the GI50 [28] was 77.3 µM (inactive), the GI50 [29] was 75.3 µM (inactive) and the GI50 [30] was 68.2 µM (inactive). The GI50 [31] was 58.7 µM (inactive), the GI50 [56] was 70.3 µM (inactive) and the GI50 [32] was 96.6 µM (inactive). The GI50 [57] was > 100 µM (inactive), the GI50 [33] was > 100 µM (inactive) and the GI50 [35] was 66.8 µM (inactive). For the same compound, the GI50 [36] was > 100 µM (inactive), the GI50 [37] was > 100 µM (inactive) and the GI50 [38] was 82 µM (inactive). The GI50 [39] was 57.8 µM (inactive), the GI50 [40] was > 100 µM (inactive) and the GI50 [41] was > 100 µM (inactive). For the same compound, the GI50 [42] was > 100 µM (inactive), the GI50 [43] was 67.8 µM (inactive) and the GI50 [44] was > 100 µM (inactive). The GI50 [46] was > 100 µM (inactive), the GI50 [47] was > 100 µM (inactive) and the GI50 [48] was > 100 µM (inactive). For the same compound, the GI50 [49] was > 100 µM (inactive), the GI50 [50] was 41.8 µM (inactive) and the GI50 [51] was > 100 µM (inactive).
